Assay results: US10421774B2 (priority 2016, dated 2019)

How the values were obtained:
Test in all cases: microbe, parasite or virus in culture
Assay type in all cases: cell-based, HIV-1
[1] = tested on: A364V site directed mutant virus; settings: Human immunodeficiency virus 1, MT2, read-out: A364V EC50
Summary of the method: (§1)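 Virus yield quantified by Renilla luciferase after 4–5 day culture at 37°C of MT-2 cells (10,000/well) with 3-fold serially diluted compound at 1% final DMSO. Reporter viruses were NL4-3 P373S derivatives bearing Gag A364V or V370A/ΔT371, inputs matched on luciferase endpoint.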

gag V370A/ΔT371 virus = settings: Human immunodeficiency virus 1, MT2, read-out: V370A/ΔT371 EC50
Summary of the method: as §1

[2] = tested on: NLRepRlucP373S recombinant wild type (WT) virus; settings: Human immunodeficiency virus 1, MT2, read-out: WT EC50
Summary of the method: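 Multiple-cycle assay: luciferase-normalized NL4-3-derived NLRepRlucP373S (Renilla luciferase in place of nef) infects MT-2 cells, 10,000 cells/well, with 3-fold compound dilutions at 1% DMSO, 4-5 days, 37 °C. EC50 and EC90 fitted by median effect equation against Renilla luminescence, with residual signal under 3 μM NFV as background.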

[3] = tested on: T332S/V362I/Pr R41G virus; settings: Human immunodeficiency virus 1, MT2, read-out: T332S/V362I/pr41G EC50
Summary of the method: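 Multiple-cycle susceptibility: MT-2 cells, 10,000 per well, exposed to 3-fold compound dilutions at 1% DMSO after infection with luciferase-normalized inoculum. Virus: NL4-3-derived Renilla reporter (Gag P373S) with Gag T332S/V362I and protease R41G. Readout Renilla luciferase after 4–5 days, 37 °C.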

SMILES: C=C(C)[C@@H]1CC[C@]2(NC[C@@H](O)C(=O)O)CC[C@]3(C)[C@H](CC[C@@H]4[C@@]5(C)CC=C(C6=CC[C@](COc7ncccc7C(=O)O)(C(=O)O)CC6)C(C)(C)[C@@H]5CC[C@]43C)[C@@H]12 [Example A16, 2-(((R)-1-carboxy-4-((1R,3aS,5aR,5bR,7aR,11aS,11bR,13aR,13bR)-3a-(((R)-2-carboxy-2-hydroxyethyl)amino)-5a,5b,8,8,11a-pentamethyl-1-(prop-1-en-2-yl)-2,3,3a,4,5,5a,5b,6,7,7a,8,11,11a,11b,12,13,13a,13b-octadecahydro-1H-cyclopenta[a]chrysen-9-yl)cyclohex-3-en-1-yl)methoxy)nicotinic acid]
- EC50 [1]: 0.139 µM
- EC50 (gag V370A/ΔT371 virus): 0.068 µM
- EC50 [2]: 0.01 µM
- EC50 [3]: 0.068 µM

SMILES: C=C(C)[C@@H]1CC[C@]2(NC[C@H](O)C(=O)O)CC[C@]3(C)[C@H](CC[C@@H]4[C@@]5(C)CC=C(C6=CC[C@](COc7ncccc7C#N)(C(=O)O)CC6)C(C)(C)[C@@H]5CC[C@]43C)[C@@H]12 [Example A17, (R)-4-((1R,3aS,5aR,5bR,7aR,11aS,11bR,13aR,13bR)-3a-(((S)-2-carboxy-2-hydroxyethyl)amino)-5a,5b,8,8,11a-pentamethyl-1-(prop-1-en-2-yl)-2,3,3a,4,5,5a,5b,6,7,7a,8,11,11a,11b,12,13,13a,13b-octadecahydro-1H-cyclopenta[a]chrysen-9-yl)-1-(((3-cyanopyridin-2-yl)oxy)methyl)cyclohex-3-enecarboxylic acid]
- EC50 [1]: 3 µM
- EC50 (gag V370A/ΔT371 virus): 0.015 µM
- EC50 [2]: 0.003 µM
- EC50 [3]: 0.015 µM

SMILES: C=C(C)[C@@H]1CC[C@]2(NC[C@H](O)C(=O)O)CC[C@]3(C)[C@H](CC[C@@H]4[C@@]5(C)CC=C(C6=CC[C@](COc7ncccc7C(N)=O)(C(=O)O)CC6)C(C)(C)[C@@H]5CC[C@]43C)[C@@H]12 [Example A18]
- EC50 [1]: 0.192 µM
- EC50 (gag V370A/ΔT371 virus): 0.027 µM
- EC50 [2]: 0.008 µM
- EC50 [3]: 0.027 µM

SMILES: C=C(C)[C@@H]1CC[C@]2(NCC(C)(O)C(=O)O)CC[C@]3(C)[C@H](CC[C@@H]4[C@@]5(C)CC=C(C6=CC[C@](COc7ncccc7C#N)(C(=O)O)CC6)C(C)(C)[C@@H]5CC[C@]43C)[C@@H]12 (stereo partly drawn) [Example A19, (1R)-4-((1R,3aS,5aR,5bR,7aR,11aS,11bR,13aR,13bR)-3a-((2-carboxy-2-hydroxypropyl)amino)-5a,5b,8,8,11a-pentamethyl-1-(prop-1-en-2-yl)-2,3,3a,4,5,5a,5b,6,7,7a,8,11,11a,11b,12,13,13a,13b-octadecahydro-1H-cyclopenta[a]chrysen-9-yl)-1-(((3-cyanopyridin-2-yl)oxy)methyl)cyclohex-3-enecarboxylic acid]
- EC50 [1]: > 0.05 µM
- EC50 (gag V370A/ΔT371 virus): 0.02 µM
- EC50 [2]: 0.003 µM
- EC50 [3]: 0.02 µM

SMILES: C=C(C)[C@@H]1CC[C@]2(NCCN3CCS(=O)(=O)CC3)CC[C@]3(C)[C@H](CC[C@@H]4[C@@]5(C)CC=C(C6=CCC(CCOc7ccccn7)(C(=O)O)CC6)C(C)(C)[C@@H]5CC[C@]43C)[C@@H]12 (stereo partly drawn) [Example A20, 4-((1R,3aS,5aR,5bR,7aR,11aS,11bR,13aR,13bR)-3a-((2-(1,1-dioxidothiomorpholino)ethyl)amino)-5a,5b,8,8,11a-pentamethyl-1-(prop-1-en-2-yl)-2,3,3a,4,5,5a,5b,6,7,7a,8,11,11a,11b,12,13,13a,13b-octadecahydro-1H-cyclopenta[a]chrysen-9-yl)-1-(2-(pyridin-2-yloxy)ethyl)cyclohex-3-ene-1-carboxylic acid]
- EC50 [1]: < 0.05 µM
- EC50 (gag V370A/ΔT371 virus): < 0.05 µM
- EC50 [2]: < 0.05 µM
- EC50 [3]: < 0.05 µM

SMILES: C=C(C)[C@@H]1CC[C@]2(NCCN3CCS(=O)(=O)CC3)CC[C@]3(C)[C@H](CC[C@@H]4[C@@]5(C)CC=C(C6=CCC(CCOc7cc(C)sn7)(C(=O)O)CC6)C(C)(C)[C@@H]5CC[C@]43C)[C@@H]12 (stereo partly drawn) [Example A21, 4-((1R,3aS,5aR,5bR,7aR,11aS,11bR,13aR,13bR)-3a-((2-(1,1-dioxidothiomorpholino)ethyl)amino)-5a,5b,8,8,11a-pentamethyl-1-(prop-1-en-2-yl)-2,3,3a,4,5,5a,5b,6,7,7a,8,11,11a,11b,12,13,13a,13b-octadecahydro-1H-cyclopenta[a]chrysen-9-yl)-1-(2-((5-methylisothiazol-3-yl)oxy)ethyl)cyclohex-3-ene-1-carboxylic acid]
- EC50 [1]: 0.017 µM
- EC50 (gag V370A/ΔT371 virus): 0.018 µM
- EC50 [2]: 0.003 µM
- EC50 [3]: 0.018 µM

SMILES: C=C(C)[C@@H]1CC[C@]2(NCCN3CCS(=O)(=O)CC3)CC[C@]3(C)[C@H](CC[C@@H]4[C@@]5(C)CC=C(C6=CCC(CCOc7ncccc7C#N)(C(=O)O)CC6)C(C)(C)[C@@H]5CC[C@]43C)[C@@H]12 (stereo partly drawn) [Example A22, 1-(2-((3-cyanopyridin-2-yl)oxy)ethyl)-4-((1R,3aS,5aR,5bR,7aR,11aS,11bR,13aR,13bR)-3a-((2-(1,1-dioxidothiomorpholino)ethyl)amino)-5a,5b,8,8,11a-pentamethyl-1-(prop-1-en-2-yl)-2,3,3a,4,5,5a,5b,6,7,7a,8,11,11a,11b,12,13,13a,13b-octadecahydro-1H-cyclopenta[a]chrysen-9-yl)cyclohex-3-ene-1-carboxylic acid]
- EC50 [1]: 0.027 µM
- EC50 (gag V370A/ΔT371 virus): 0.013 µM
- EC50 [2]: 0.004 µM
- EC50 [3]: 0.013 µM

SMILES: C=C(C)[C@@H]1CC[C@]2(NCCN3CCS(=O)(=O)CC3)CC[C@]3(C)[C@H](CC[C@@H]4[C@@]5(C)CC=C(C6=CCC(CCOc7cc(C(=O)O)ccn7)(C(=O)O)CC6)C(C)(C)[C@@H]5CC[C@]43C)[C@@H]12 (stereo partly drawn) [Example A23, 2-(2-(1-carboxy-4-((1R,3aS,5aR,5bR,7aR,11aS,11bR,13aR,13bR)-3a-((2-(1,1-dioxidothiomorpholino)ethyl)amino)-5a,5b,8,8,11a-pentamethyl-1-(prop-1-en-2-yl)-2,3,3a,4,5,5a,5b,6,7,7a,8,11,11a,11b,12,13,13a,13b-octadecahydro-1H-cyclopenta[a]chrysen-9-yl)cyclohex-3-en-1-yl)ethoxy)isonicotinic acid]
- EC50 [1]: 0.333 µM
- EC50 (gag V370A/ΔT371 virus): > 0.05 µM
- EC50 [2]: 0.007 µM
- EC50 [3]: 0.193 µM

SMILES: C=C(C)[C@@H]1CC[C@]2(NCCN3CCS(=O)(=O)CC3)CC[C@]3(C)[C@H](CC[C@@H]4[C@@]5(C)CC=C(C6=CCC(CCOc7cc(C#N)ccn7)(C(=O)O)CC6)C(C)(C)[C@@H]5CC[C@]43C)[C@@H]12 (stereo partly drawn) [Example A24, 1-(2-((4-cyanopyridin-2-yl)oxy)ethyl)-4-((1R,3aS,5aR,5bR,7aR,11aS,11bR,13aR,13bR)-3a-((2-(1,1-dioxidothiomorpholino)ethyl)amino)-5a,5b,8,8,11a-pentamethyl-1-(prop-1-en-2-yl)-2,3,3a,4,5,5a,5b,6,7,7a,8,11,11a,11b,12,13,13a,13b-octadecahydro-1H-cyclopenta[a]chrysen-9-yl)cyclohex-3-ene-1-carboxylic acid]
- EC50 [1]: 0.007 µM
- EC50 (gag V370A/ΔT371 virus): 3 µM
- EC50 [2]: 0.001 µM
- EC50 [3]: 3 µM

SMILES: C=C(C)[C@@H]1CC[C@]2(NCCN3CCS(=O)(=O)CC3)CC[C@]3(C)[C@H](CC[C@@H]4[C@@]5(C)CC=C(C6=CCC(CCOc7ncccn7)(C(=O)O)CC6)C(C)(C)[C@@H]5CC[C@]43C)[C@@H]12 (stereo partly drawn) [Example A25, 4-((1R,3aS,5aR,5bR,7aR,11aS,11bR,13aR,13bR)-3a-((2-(1,1-dioxidothiomorpholino)ethyl)amino)-5a,5b,8,8,11a-pentamethyl-1-(prop-1-en-2-yl)-2,3,3a,4,5,5a,5b,6,7,7a,8,11,11a,11b,12,13,13a,13b-octadecahydro-1H-cyclopenta[a]chrysen-9-yl)-1-(2-(pyrimidin-2-yloxy)ethyl)cyclohex-3-ene-1-carboxylic acid]
- EC50 [1]: < 0.05 µM
- EC50 (gag V370A/ΔT371 virus): < 0.05 µM
- EC50 [2]: < 0.05 µM
- EC50 [3]: < 0.05 µM

SMILES: C=C(C)[C@@H]1CC[C@]2(NCCN3CCS(=O)(=O)CC3)CC[C@]3(C)[C@H](CC[C@@H]4[C@@]5(C)CC=C(C6=CCC(CCOc7nccc(C)n7)(C(=O)O)CC6)C(C)(C)[C@@H]5CC[C@]43C)[C@@H]12 (stereo partly drawn) [Example A26, 4-((1R,3aS,5aR,5bR,7aR,11aS,11bR,13aR,13bR)-3a-((2-(1,1-dioxidothiomorpholino)ethyl)amino)-5a,5b,8,8,11a-pentamethyl-1-(prop-1-en-2-yl)-2,3,3a,4,5,5a,5b,6,7,7a,8,11,11a,11b,12,13,13a,13b-octadecahydro-1H-cyclopenta[a]chrysen-9-yl)-1-(2-((4-methylpyrimidin-2-yl)oxy)ethyl)cyclohex-3-ene-1-carboxylic acid]
- EC50 [1]: > 0.05 µM
- EC50 (gag V370A/ΔT371 virus): > 0.05 µM
- EC50 [2]: 0.005 µM
- EC50 [3]: > 0.05 µM
